According to ChEMBL document CHEMBL3407361, “Structural exploration, synthesis and pharmacological evaluation of novel 5-benzylidenethiazolidine-2,4-dione derivatives as iNOS inhibitors against inflammatory diseases” (Eur J Med Chem, 2015):
Values after ≈ are worked out from the molar mass of the structure shown. Active and inactive are the calls of the source. The calls are words filed in the database; no cut-off is given here.

Columns and labels:
RAW264.7 [1] = experiment: Inhibition of LPS-induced nitric oxide production in mouse RAW264.7 cells pre-incubated at 100 uM for 2 hrs before LPS challenge measured 18 hrs post LPS challenge by Griess method; type: functional, cell-based
RAW264.7 [2] = experiment: Inhibition of LPS-induced nitric oxide production in mouse RAW264.7 cells pre-incubated for 2 hrs before LPS challenge measured 18 hrs post LPS challenge by Griess method; type: functional, cell-based
[3] = molecular target: T1, Nitric oxide synthase, inducible (Mus musculus, UniProt P29477); experiment: Inhibition of iNOS-induced nitric oxide production in LPS-stimulated mouse RAW264.7 cells pre-incubated for 2 hrs before LPS challenge by fluorescence assay; type: cell-based
T1 sequence (P29477 whole entry): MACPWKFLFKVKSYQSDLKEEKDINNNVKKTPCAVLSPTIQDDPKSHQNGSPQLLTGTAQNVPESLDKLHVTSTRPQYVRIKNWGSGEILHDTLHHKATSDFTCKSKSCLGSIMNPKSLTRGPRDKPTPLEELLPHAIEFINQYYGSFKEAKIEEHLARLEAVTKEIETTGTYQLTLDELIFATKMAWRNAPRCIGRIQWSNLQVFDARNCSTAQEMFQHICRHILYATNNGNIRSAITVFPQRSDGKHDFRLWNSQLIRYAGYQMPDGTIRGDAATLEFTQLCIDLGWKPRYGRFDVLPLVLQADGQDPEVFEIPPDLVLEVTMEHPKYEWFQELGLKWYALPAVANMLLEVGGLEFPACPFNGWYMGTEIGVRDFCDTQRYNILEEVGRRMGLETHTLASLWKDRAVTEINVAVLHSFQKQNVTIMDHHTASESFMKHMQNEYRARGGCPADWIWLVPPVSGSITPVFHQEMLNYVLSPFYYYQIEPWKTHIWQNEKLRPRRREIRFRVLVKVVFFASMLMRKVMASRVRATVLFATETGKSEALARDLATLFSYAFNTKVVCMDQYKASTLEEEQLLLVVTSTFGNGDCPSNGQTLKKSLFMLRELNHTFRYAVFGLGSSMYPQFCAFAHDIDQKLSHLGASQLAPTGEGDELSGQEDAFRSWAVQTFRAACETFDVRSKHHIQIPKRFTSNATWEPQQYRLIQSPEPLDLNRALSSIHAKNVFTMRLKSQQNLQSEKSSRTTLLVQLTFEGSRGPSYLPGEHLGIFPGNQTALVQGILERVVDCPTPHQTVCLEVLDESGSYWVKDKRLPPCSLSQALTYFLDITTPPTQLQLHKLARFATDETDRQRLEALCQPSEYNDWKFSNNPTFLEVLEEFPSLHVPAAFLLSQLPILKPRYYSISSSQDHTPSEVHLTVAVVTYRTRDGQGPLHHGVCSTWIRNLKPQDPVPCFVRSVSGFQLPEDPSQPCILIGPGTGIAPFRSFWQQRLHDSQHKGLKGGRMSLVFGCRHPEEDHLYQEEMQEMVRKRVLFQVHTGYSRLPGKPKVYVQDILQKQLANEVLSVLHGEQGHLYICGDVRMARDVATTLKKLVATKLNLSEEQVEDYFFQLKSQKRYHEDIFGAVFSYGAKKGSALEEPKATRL

RAW264.7 [4] = experiment: Cytotoxicity against LPS-stimulated mouse RAW264.7 cells after 24 hrs by MTT assay; type: cell-based; details: RAW264.7, 24 h
RAW264.7 [5] = experiment: cells; details: Mus musculus, RAW264.7, 24 h
Description: Cytotoxicity against mouse RAW264.7 cells after 24 hrs by MTT assay

[6] = Solubility in EtOH assessed as maximum soluble concentration at 25 degC by nephelometry; type: physicochemical; details: ethanol
[7] = Solubility in PBS at pH 7.4 assessed as maximum soluble concentration at 25 degC by nephelometry; type: physicochemical
[8] = Cmax in Sprague-Dawley rat at 5 mg/kg; type: ADME, organism-based; set-up: dose 5 mg/kg; details: in vivo
[9] = Tmax in Sprague-Dawley rat at 5 mg/kg; type: ADME, organism-based; set-up: dose 5 mg/kg; details: in vivo
[10] = Half life in Sprague-Dawley rat at 5 mg/kg; type: ADME, organism-based; set-up: dose 5 mg/kg; details: in vivo
[11] = AUC (0 to t) in Sprague-Dawley rat at 5 mg/kg; type: ADME, organism-based; set-up: dose 5 mg/kg; details: plasma
[12] = Cmax in Sprague-Dawley rat at 20 mg/kg, po; type: ADME, organism-based; set-up: dose 20 mg/kg, route oral; details: in vivo
[13] = Tmax in Sprague-Dawley rat at 20 mg/kg, po; type: ADME, organism-based; set-up: dose 20 mg/kg, route oral; details: in vivo
[14] = Half life in Sprague-Dawley rat at 20 mg/kg, po; type: ADME, organism-based; set-up: dose 20 mg/kg, route oral; details: in vivo
[15] = AUC (0 to t) in Sprague-Dawley rat at 20 mg/kg, po; type: ADME, organism-based; set-up: dose 20 mg/kg, route oral; details: plasma
[16] = Oral bioavailability in Sprague-Dawley rat at 20 mg/kg; type: ADME, organism-based; details: in vivo
Mus musculus = experiment: Antiinflammatory activity in ICR mouse assessed as inhibition of carrageenan-induced paw edema at 10 mg/kg, po administered 30 mins before carrageenan challenge measured after 2 hrs; type: functional
Rattus norvegicus = experiment: Antiinflammatory activity in CFA-induced Lewis rat arthritis model at 10 mg/kg, po; type: functional, organism-based; set-up: dose 10 mg/kg

SMILES	inhibition (RAW264.7 [1])	IC50 (RAW264.7 [2])	IC50 (RAW264.7 [4])	IC50 (RAW264.7 [5])	further results
O=C(O)CN1C(=O)/C(=C/c2ccc(OCC(=O)Nc3cccc(Cl)c3)cc2)SC1=S	Active	68.9 µM	> 80 µM	> 80 µM	IC50 [3]: 47.8 µM
O=C(COc1ccc(/C=C2\SC(=O)N(CCN3CCCCC3)C2=O)cc1)Nc1cccc(Cl)c1	Active	–	–	–	–
COc1cc(/C=C2\SC(=O)NC2=O)cc(OC)c1OCC(=O)Nc1cccc(Cl)c1	Active	45.6 µM	> 80 µM	> 80 µM	IC50 [3]: 25.2 µM; solubility kinetic [6]: 3.1 mg/mL (≈ 6.91 mM); solubility kinetic [7]: < 0.5 mg/mL; Cmax [8]: 0.332 µg/mL; Tmax [9]: 4.2 min; half-life [10]: 7.83 h; AUC(0-t) [11]: 0.387 µg·h/mL; Cmax [12]: 0.0462 µg/mL; Tmax [13]: 2.27 h; half-life [14]: 5.9 h; AUC(0-t) [15]: 0.421 µg·h/mL; bioavailability [16]: 27.2%; inhibition in vivo at 10 mg/kg (Mus musculus): 26.1%; Activity (Rattus norvegicus): Active
N=C1NC(=O)/C(=C/c2ccc(OCC(=O)Nc3cccc(Cl)c3)cc2)S1	Active	–	–	–	–
O=C(COc1ccc(/C=C2\SC(=O)N(CCN3CCCC3)C2=O)cc1)Nc1cccc(Cl)c1	Active	–	–	–	–
O=C(COc1ccc(/C=C2\SC(=O)N(CC(=O)Nc3ccccc3)C2=O)cc1)Nc1cccc(Cl)c1	Active	–	–	–	–
C#CCN1C(=O)S/C(=C\c2ccc(OCC(=O)Nc3cccc(Cl)c3)cc2)C1=O	Active	–	–	–	–
CC(CN(C)C)CN1C(=O)S/C(=C\c2ccc(OCC(=O)Nc3cccc(Cl)c3)cc2)C1=O (centres undefined)	Active	53.2 µM	> 80 µM	> 80 µM	IC50 [3]: 32.1 µM
COC(=O)CCN1C(=O)S/C(=C\c2ccc(OCC(=O)Nc3cccc(Cl)c3)cc2)C1=O	Active	–	–	–	–
COc1ccc2c(c1)c(CC(=O)O)c(C)n2C(=O)c1ccc(Cl)cc1 [INDOMETHACIN]	–	40.3 µM	> 80 µM	> 80 µM	inhibition in vivo at 10 mg/kg (Mus musculus): 33.5%
O=C(COc1cccc(/C=C2\SC(=O)NC2=O)c1)Nc1cccc(Cl)c1	Active	–	–	–	–
O=C(COc1ccc(C=C2C(=O)NC(=S)NC2=O)cc1)Nc1cccc(Cl)c1	Active	–	–	–	–
O=C(COc1ccc(/C=C2\SC(=O)NC2=O)cc1)Nc1cccc(Cl)c1	–	21.3 µM	> 80 µM	> 80 µM	solubility kinetic [6]: 1.5 mg/mL (≈ 3.86 mM); solubility kinetic [7]: < 0.5 mg/mL; inhibition in vivo at 10 mg/kg (Mus musculus): 37.8%
COCN1C(=O)S/C(=C\c2ccc(OCC(=O)Nc3cccc(Cl)c3)cc2)C1=O	–	> 80 µM	72.5 µM	68.4 µM	–
O=C(COc1ccc(/C=C2\NC(=O)N(Cc3ccccc3)C2=O)cc1)Nc1cccc(Cl)c1	Active	75.4 µM	46.3 µM	> 80 µM	IC50 [3]: 43.2 µM
